{"source": "patent US9777297B2", "about": "(EASEL BIOTECHNOLOGIES, LLC, priority 2011, dated 2017)", "tested_on": "engineered E. coli", "assay": "n-butyraldehyde toxicity incubation test in sealed tube, colony forming units versus time", "assay_type": "cell-based", "description": "In all cases, including the case in which no addition is made, the number of colony forming units tends to a minimum value (e.g., cells no longer viable) after about 24 hours."}
{"smiles": "CCCC=O", "note": "[n-butyraldehyde]", "values": [{"measurement": "change in colony forming units per μL", "setting": "1.0 g/L n-butyraldehyde added, a little after 5 hours", "value": "net increase"}, {"measurement": "change in colony forming units per μL", "setting": "1.2 g/L and above n-butyraldehyde added, at 4.5 hours", "value": "net decrease"}]}
